Each block holds one compound with its values, some of them ahead of it.
Columns and labels:
EPAC1 [1] = target: T1, EPAC1 (Homo sapiens, UniProt O95398); assay: Cellular Rap1 assay (ELISA for Rap1-GTP) in HEK293/hEPAC1/Flag-Rap1 cells; type: cell-based; settings: for AC50: 10 min stimulation, read-out: apparent half maximal activation constant (AC50), Rap1-GTP levels
T1 construct: HEK293 cell lines stably expressing Flag-tagged Rap1A and full-length EPAC1 or EPAC2 are proposed; expressed in transfected cells
T1 sequence (O95398 1-923): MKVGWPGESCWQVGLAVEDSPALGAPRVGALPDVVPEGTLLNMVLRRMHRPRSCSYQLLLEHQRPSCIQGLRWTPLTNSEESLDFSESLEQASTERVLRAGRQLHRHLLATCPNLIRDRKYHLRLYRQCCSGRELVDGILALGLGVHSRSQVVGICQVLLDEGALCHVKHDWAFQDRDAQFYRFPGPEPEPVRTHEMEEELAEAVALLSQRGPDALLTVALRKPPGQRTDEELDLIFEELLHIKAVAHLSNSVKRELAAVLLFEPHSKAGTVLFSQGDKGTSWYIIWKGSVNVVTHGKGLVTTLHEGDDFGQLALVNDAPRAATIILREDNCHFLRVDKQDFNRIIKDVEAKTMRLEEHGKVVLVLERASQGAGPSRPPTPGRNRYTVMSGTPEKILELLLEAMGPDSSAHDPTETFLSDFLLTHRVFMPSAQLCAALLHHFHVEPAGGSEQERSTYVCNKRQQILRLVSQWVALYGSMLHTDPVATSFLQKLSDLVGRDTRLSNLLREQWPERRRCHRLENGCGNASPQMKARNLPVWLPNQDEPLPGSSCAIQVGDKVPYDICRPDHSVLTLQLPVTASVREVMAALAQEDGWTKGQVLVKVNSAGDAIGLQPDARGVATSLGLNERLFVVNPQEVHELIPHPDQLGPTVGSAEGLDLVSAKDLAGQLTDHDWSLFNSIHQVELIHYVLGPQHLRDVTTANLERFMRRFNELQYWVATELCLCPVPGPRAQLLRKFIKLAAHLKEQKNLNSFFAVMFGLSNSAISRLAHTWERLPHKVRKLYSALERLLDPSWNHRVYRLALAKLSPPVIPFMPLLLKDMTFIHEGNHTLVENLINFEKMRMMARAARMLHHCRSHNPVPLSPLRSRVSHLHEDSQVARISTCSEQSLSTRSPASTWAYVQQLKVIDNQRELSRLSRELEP
From the text: To develop a cell-based, isoform-specific EPAC activation assay, HEK293 cell lines stably expressing Flag-tagged Rap1A and full-length EPAC1 or EPAC2 are proposed. HEK293 cells express minimal endogenous levels of EPAC1 and EPAC2 and have been used as host cells for evaluating the cellular activities of ectopically expressed EPAC proteins in an isoform-specific manner. Activation of EPAC1 or EPAC2 in these cell lines by cAMP elevating agents leads to the accumulation of Flag-Rap1-GTP, which can be captured by RalGDS-RBD immobilized in a nickel-coated 96-well microplate. The levels of active Flag-Rap1-GTP protein can be quantitatively monitored using a specific anti-FLAG antibody and a HRP conjugated secondary antibody in a manner similar to that of a conventional ELISA assay (Fig. 1).
HEK293 (ATCC) cells were grown in MEM medium supplemented with 10% heat-inactivated FBS (Invitrogen), at 37 °C, 5% CO2. HEK293 stable cell lines expressing Flag-tagged human Rap1A (Flag-hRap1A) alone and co-expressing human EPAC1 (hEPAC1) and Flag-hRap1A or mouse EPAC2 (mEPAC2) and Flag-hRap1A were established by sequential transfections using Lipofectamine 2000 reagent (Invitrogen) with mammalian expression vectors, first with pIRES2-EGFP containing Flag-hRap1A and followed by pIRES‐hyg2 containing hEPAC1 or mEPAC2. Individual stable cell clones were selected and maintained in MEM containing 500 µg/ml G418 for pIRES2-EGFP and 100 µg/ml hygromycin B for pIRES‐hyg2, respectively.
HEK293 cells co-expressing hEPAC1/Flag-tagged hRap1A or mEPAC2/Flag-tagged hRap1A were seeded in 12-well plates (Corning #3513) at an initial confluency of 400,000 cell/well and incubate at 37 °C, 5% CO2, in MEM medium with 10% FBS, for 24 hours. Cells were then rinsed with HBSS and cultured in FBS-free MEM medium for another 16 hours. If necessary cells were first pretreated with various concentration of antagonists or vehicle at 37 °C for 30 min. Otherwise, the cells were stimulated with various concentrations of agonists or vehicle controls at 37 °C for 10 min, then immediately rinsed with ice-cold PBS and lysed in 500 µl ice-cold lysis buffer containing 20 mM Tris-HCl, pH 7.4, 150 mM NaCl, 10 mM MgCl2, 1% IGEPAL CA-630 and proteinase inhibitors cocktail. Cell extracts were clarified by centrifugation at 18,000 RCF for 20 min and their protein concentrations were determined by DC protein assay kit. 100 µl of properly diluted cell lysates containing 0 to 50 µg total proteins were added to nickel coated 96-well plate strips that were pre-coated with 200 µg of RalGDS-RBD-His6 proteins and incubated at 4 °C for 2 hours with gentle rocking. After washing with 100 µl ice-cold ELISA buffer (20 mM Tris-HCl, pH 7.4, 150 mM NaCl, 10 mM MgCl2 and 0.1% Tween-20) for 3 times, 100 µl mouse anti-Flag antibody (1:5000 in ELISA buffer) was added into each well and incubated at 4 °C for 1 hour with gentle shaking. Following three washes with 100 µl ice-cold ELISA buffer, 100 µl anti-mouse HRP-conjugated antibodies (1:3000 in ELISA buffer) were added into each well. After incubation at room temperature for 1 hour with gentle shaking, the wells were washed three times with 100 µl ELISA buffer. 200 µl of OPD substrate was added into each well and absorbance signal at 450 nm was monitored using an M2 microplate reader (Molecular Devices) for 30 min with 1-min intervals. 10-min data points were used for quantification.

EPAC2 [2] = target: T2, EPAC2 (Mus musculus, UniProt Q9EQZ6); assay: Cellular Rap1 assay (ELISA for Rap1-GTP) in HEK293/mEPAC2/Flag-Rap1 cells; type: cell-based
T2 construct: HEK293 cell lines stably expressing Flag-tagged Rap1A and full-length EPAC1 or EPAC2 are proposed; expressed in transfected cells
T2 sequence (Q9EQZ6 1-1011): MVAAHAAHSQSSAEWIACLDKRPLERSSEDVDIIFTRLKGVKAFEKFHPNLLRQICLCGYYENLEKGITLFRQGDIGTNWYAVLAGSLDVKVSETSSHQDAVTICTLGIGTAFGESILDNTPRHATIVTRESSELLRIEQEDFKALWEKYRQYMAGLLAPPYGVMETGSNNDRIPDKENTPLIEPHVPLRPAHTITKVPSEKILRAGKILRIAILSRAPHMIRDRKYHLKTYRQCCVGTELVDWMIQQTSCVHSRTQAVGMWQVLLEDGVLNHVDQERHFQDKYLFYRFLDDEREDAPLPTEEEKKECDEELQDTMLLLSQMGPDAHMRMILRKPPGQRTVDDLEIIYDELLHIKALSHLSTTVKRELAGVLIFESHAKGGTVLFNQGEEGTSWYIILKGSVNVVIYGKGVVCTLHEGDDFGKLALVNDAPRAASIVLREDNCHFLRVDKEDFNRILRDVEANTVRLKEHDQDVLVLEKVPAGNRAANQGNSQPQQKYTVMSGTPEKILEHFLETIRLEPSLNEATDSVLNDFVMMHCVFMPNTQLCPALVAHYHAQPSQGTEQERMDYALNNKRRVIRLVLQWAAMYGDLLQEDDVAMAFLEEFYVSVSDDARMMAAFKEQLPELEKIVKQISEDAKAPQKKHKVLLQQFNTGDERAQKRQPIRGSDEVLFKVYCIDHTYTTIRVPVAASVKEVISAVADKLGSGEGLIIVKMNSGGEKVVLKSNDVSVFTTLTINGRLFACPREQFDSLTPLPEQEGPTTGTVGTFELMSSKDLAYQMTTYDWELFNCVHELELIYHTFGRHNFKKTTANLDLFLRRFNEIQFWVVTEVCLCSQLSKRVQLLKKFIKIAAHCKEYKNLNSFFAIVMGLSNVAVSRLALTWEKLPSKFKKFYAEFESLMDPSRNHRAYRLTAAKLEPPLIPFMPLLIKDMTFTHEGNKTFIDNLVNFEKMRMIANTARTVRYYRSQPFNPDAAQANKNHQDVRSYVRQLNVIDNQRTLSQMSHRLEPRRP
Procedure: HEK293 cells co-expressing hEPAC1/Flag-tagged hRap1A or mEPAC2/Flag-tagged hRap1A were seeded in 12-well plates (Corning #3513) at an initial confluency of 400,000 cell/well and incubate at 37 °C, 5% CO2, in MEM medium with 10% FBS, for 24 hours. Cells were then rinsed with HBSS and cultured in FBS-free MEM medium for another 16 hours. If necessary cells were first pretreated with various concentration of antagonists or vehicle at 37 °C for 30 min. Otherwise, the cells were stimulated with various concentrations of agonists or vehicle controls at 37 °C for 10 min, then immediately rinsed with ice-cold PBS and lysed in 500 µl ice-cold lysis buffer containing 20 mM Tris-HCl, pH 7.4, 150 mM NaCl, 10 mM MgCl2, 1% IGEPAL CA-630 and proteinase inhibitors cocktail. Cell extracts were clarified by centrifugation at 18,000 RCF for 20 min and their protein concentrations were determined by DC protein assay kit. […] 200 µl of OPD substrate was added into each well and absorbance signal at 450 nm was monitored using an M2 microplate reader (Molecular Devices) for 30 min with 1-min intervals. 10-min data points were used for quantification.

EPAC2 [3] = system: EPAC2; design: method as in PMID 23091014, PMID 23286832; settings: in the presence of 20 µM cAMP; selective for EPAC2, not EPAC1; cited from earlier work
EPAC1 [4] = target: T1, EPAC1; assay: Conventional affinity pull-down assay of Rap1-GTP using GST-RalGDS-RBD, immunoblot; type: cell-based; settings: HEK293/hEPAC1/Flag-Rap1 cells, various concentrations
From the text: Forskolin is a labdane diterpene natural product, commonly used a biochemical tool to stimulate intracellular levels of cAMP[31]. Treatment of HEK293/hEPAC1/Flag-Rap1 or HEK293/mEPAC2/ Flag-Rap1 cells with forskolin led to a dose-dependent increase in Rap1-GTP levels in both cell lines (Fig. 3A,B). […] Since forskolin-mediated increase in intracellular cAMP activates both EPAC and PKA, to ensure that the signals observed in our assay were not in part due to the activation of PKA, control experiments in the presence of a PKA-specific inhibitor, H89, were performed.
Figure S1. Dose-dependent cellular activation of EPAC1 by forskolin. Relative Rap1-GTP levels, as monitored by affinity pull-down assay using GST-RalGDS-RBD, in HEK293 cells overexpressing EPAC1 stimulated by various concentrations of forskolin. Inset: representative immunoblot image of Rap1-GTP levels under basal and forskolin-stimulated conditions.

effects on basal and forskolin-induced Rap1 activities (EPAC1 [1]; 10 µM H89, HEK293 cells overexpressing EPAC1 (Fig. S2)): minimal
Structure (SMILES): O=S(=O)(NCCNC/C=C/c1ccc(Br)cc1)c1cccc2cnccc12 [H89]

AC50 (EPAC1 [1]; HEK293/hEPAC1/Flag-Rap1 cells): 16.5 ± 3.1 nM | dose-dependent activation of EPAC2 (Rap1-GTP levels) (EPAC2 [2]; up to 10 µM): did not reach plateau
Structure (SMILES): CO[C@@H]1[C@@H]2OP(=O)(OCOC(C)=O)OC[C@H]2O[C@H]1n1c(Sc2ccc(Cl)cc2)nc2c(N)ncnc21 (stereo partly shown) [007-AM, 8-pCPT-2-O-Me-cAMP-AM]

IC50 (EPAC1 [1]; stimulated by 1 µM Forskolin, 30 min pretreatment, HEK293/hEPAC1/Flag-Rap1 cells, read-out: apparent IC50, inhibition of cellular EPAC1 activity): 4900 ± 600 nM | IC50 (EPAC2 [2]; stimulated by 1 µM Forskolin, 30 min pretreatment, read-out: apparent IC50, inhibition of cellular EPAC2 activity): 9600 ± 1600 nM
Structure (SMILES): CC(C)(C)c1cc(C(=O)/C(C#N)=N/Nc2cc(Cl)c(Cl)c(Cl)c2)no1 [NY-0123]

Structure (SMILES): Cc1ccc(S(=O)(=O)c2c(C)cc(C)cc2C)cc1 [ESI-05]
inhibition of cellular EPAC1 activation (EPAC1 [1]; stimulated by 1 µM Forskolin, HEK293/hEPAC1/Flag-Rap1 cells): no detectable activity | potency of EPAC2 inhibition (EPAC2 [3]): sub-micromolar

AC50 (EPAC1 [1]; HEK293/hEPAC1/Flag-Rap1 cells): 226 ± 57 nM | AC50 (EPAC2 [2]; 10 min stimulation, read-out: apparent half maximal activation constant (AC50), Rap1-GTP levels): 137 ± 36 nM | activation of Rap1 (relative Rap1-GTP levels, pull-down) (EPAC1 [4]): dose-dependent activation
Structure (SMILES): C=C[C@@]1(C)CC(=O)[C@]2(O)[C@@]3(C)[C@@H](O)CCC(C)(C)[C@@H]3[C@H](O)[C@H](OC(C)=O)[C@@]2(C)O1 [Forskolin]
